In patent US8455435B2, “Remedies for ischemia” (Ludwig-Maximilians-Universitat Munchen, priority 2006, dated 2013):
Values joined by “and” are separate entries in the source; they are usually repeats but may differ in a detail not shown here. Equal values may be shown once.

Experiments:
Assay type in all cases: in vivo, C57BL/6 mice
[1] = system: CD45+/CD34+ and CD45+/CD34- cell populations in peripheral blood; assay: Flow cytometry of peripheral blood mononuclear cells after PTH or G-CSF in healthy mice
Experimental: (§1) For the experiments healthy age- and sex-matched (male, 8-12 weeks of age) C57BL/6 mice (Charles River) were used. Animal care and all experimental procedures were performed in strict accordance to the German and National Institutes of Health animal legislation guidelines and were approved by the local animal care and use committees.
(§2) Mice were divided into the following groups: 1) administration of saline daily for 6 days, sacrificed at day 7 (n=6). 2) administration of PTH (Bachem) daily for 6 consecutive days (80 μg per kg body weight per day, intraperitoneally), sacrificed at day 7 (n=6). 3) administration of PTH daily for 14 consecutive days, sacrificed at day 15 (n=6). 4) administration of G-CSF (Amgen Biologicals) daily for 5 consecutive days (200 μg per kg body weight per day, intraperitoneally), sacrificed at day 6 (n=6).
(§3) at day 6, 1 ml of peripheral blood was harvested from each mouse by aspirating the carotid artery. Bone marrow cells were obtained by flushing the tibias and femurs from the euthanized mice. Mononuclear cells were separated by density-gradient centrifugation using 1.077 g/mL Histopaque solution (Sigma Chemicals), purified and resuspended in phosphate-buffered saline (PBS) containing 1% bovine serum albumin. Cells were incubated for 40 minutes in the dark at 4° C. with following fluorescein-isothiocyanate (FITC), phycoerythrin (PE), and peridinin-chlorphyll-protein (PerCP) conjugated monoclonal antibodies: CD45-PerCP, C34-FITC, CD31-PE, Sca-1-PE and c-kit-PE (all from BD Pharmingen). Isotype-identical antibodies (BD Pharmingen) served as controls. Cells were analyzed by 3-color flow cytometry using a Coulter® Epics® XL-MCL™ flow cytometer (Beckman Coulter). Each analysis included 20000 events. The absolute number of antigen-positive cells per ml of whole blood was calculated by multiplying the percentage of antigen-positive cells with the total number of mononuclear cells per ml of blood detected by the conventional hematological cell analyzer. The number of lymphocytes together with the number of monocytes comprised the total number of mononuclear cells.

[2] = system: CD45+/CD34+ and CD45+/CD34- cell populations in bone marrow; assay: Flow cytometry of bone marrow cells after PTH or G-CSF in healthy mice
Experimental: as §1, §2, §3

G-CSF = G-CSF serum level by ELISA after PTH
Experimental: as §2
(§4) G-CSF and SCF serum levels were determined by ELISA (Mouse G-CSF and Mouse SCF, RayBiotech).

SCF = SCF serum level by ELISA after PTH; conditions: day 6 of PTH stimulation
Experimental: as §2, §4

[3] = system: CD45 positive stem cells in peripheral blood; assay: Mobilization of bone marrow derived cells by PTH(1-34), flow cytometry of peripheral blood
Experimental: 8-12 week old C57BL/6 mice (n=5) were either treated with PTH (80 μg/kg/d) or saline daily for 5 or 14 consecutive days. At day 6 and day 14, 1 ml of peripheral blood was harvested from each mouse by aspirating the carotid artery. To define the number of leukocytes, heparinized blood samples were analyzed using a conventional hematological cell analyzer (Sysmex XE 2100). Mononuclear cells were separated by density-gradient centrifugation using Histopaque solution (1.077 g/ml, Sigma Chemicals), purified and resuspended in phosphate-buffered saline (PBS) containing 1% bovine serum albumin. Cells were incubated for 40 minutes in the dark at 4° C. with the following fluorescein-isothiocyanate (FITC), phycoerythrin (PE), and peridinin-chlorophyll-protein (PerCP) conjugated monoclonal antibodies: CD45− PerCP, CD34-FITC, CD31-PE, Sca-1-PE and c-kit-PE (all from BD Pharmingen). Matching isotype antibodies (BD Pharmingen) served as controls. Cells were analyzed by 3-color flow cytometry using a Coulter® Epics® XL-MCL™ flow cytometer (Beckman Coulter). Each analysis included 20000 events.

infarcted left ventricle = assay: Histology: infarct size, wall thickness, infarct composition after MI, PTH treatment; conditions: for LV-infarct size (area of necrosis and granulation tissue): day 6, % of total LV area
Experimental: Myocardial infarction was induced in male C57BL/6 mice 8-12 weeks of age by surgical occlusion of the left anterior descending artery (LAD) through a left anterolateral approach. Mice were anesthetized by intraperitoneal injection of a mixture of 100 mg/kg ketamine (Sigma Chemical Co., St. Louis, Mo.) and 5 mg/kg Xylazine (Sigma), intubated and artificially ventilated by a mouse ventilator (HUGO SACHS, March, Germany) with 200 strokes/min and 200 μl/stroke. Animal care and all experimental procedures were performed in strict accordance to the German and National Institutes of Health animal legislation guidelines and were approved by the local animal care and use committees.
After occlusion of the LAD, mice were divided into the following groups 1) subcutaneous administration of saline daily for 5 days, sacrificed at day 6 (n=10) and day 30 (n=15); 2) administration of rat PTH (1-34) daily for 5 and 14 consecutive days (80 μg/kg/d s.c., Bachem), sacrificed at day 6 (n=9) and day 30 (n=15); 3) sham operated animals sacrificed at day 30 (n=5), and not operated control animals receiving saline (n=6) sacrificed at day 6 and at day 30. All animals received BrdU ([…]) for 5 consecutive days. BrdU and cytokine treatment were started 12-24 hours after LAD occlusion.
At day 6 (n=10) and day 30 (n=10), hearts were excised. After fixation in 4% phosphate buffered formalin the hearts were cut transversally into 2 mm thick slices and embedded in paraffin. 4 μm thick sections were cut and mounted on positively charged glass slides. Standard histological procedures (hematoxilin/eosin and Masson trichrome) and immunostaining (see below) were performed.
Infarct size was determined as area of infarction (Al) correlated to the area of the left ventricle (including LV-septum) in four different slices from the base to the apex of a heart. Total infarct size was calculated by multiplication of the mean percentage value of the circular infarct area with the quotient: vertical extension of the infarct area/total ventricular extension. Wall thickness was measured by taking the average length of five segments along radii from the centre of the left ventricle through the thinnest points of the free LV wall and the septal wall. All studies were performed by a blinded pathologist.

rat PTH (1-34)
increase of subpopulations of CD45+/CD34+ and CD45+/CD34- cells ([1]; PTH 80 μg/kg/d for 6 or 14 days, peripheral blood): 1.5- to 9.8 fold | mobilization of CD45+/CD34+ cells by PTH compared to G-CSF treatment ([1]; PTH 80 μg/kg/d vs G-CSF 200 μg/kg/d 5 days): 20-50% | subtypes of CD45+/CD34+ and CD45+/CD34- cells in peripheral blood ([1]; PTH day 6 and day 14, G-CSF day 6): significant increase | mobilization of stem cells which express c-kit ([1]; in comparison to a control): 5 fold | number of mobilized subtypes of CD45+/CD34+ cells, PTH compared with G-CSF ([1]; peripheral blood): significant lower number | mobilized CD45+/CD34-/c-kit+ cells, PTH compared with G-CSF ([1]; peripheral blood, p<0.05): 49-50% | subtypes of CD45+/CD34- cells in bone marrow ([2]; PTH day 6, G-CSF): significant decrease | subtypes of CD45+CD34+ cells in bone marrow ([2]; PTH day 6 or day 14, G-CSF vs control group): no significant change | increase of G-CSF serum value (G-CSF; PTH treated mice, ELISA): 2.8 fold | serum level of G-CSF (G-CSF; day 6 of PTH stimulation): 6035.5 ± 1318.4 pg/mL | serum level of SCF (SCF): 594.6 ± 26.8 pg/mL | increase of CD45+/CD34+ cells ([3]; day 6): 4.4 fold | increase of CD45+/CD34+/CD31+ cells ([3]; day 6): 2.9 fold | increase of CD45+/CD34+/Sca-1+ cells ([3]; day 6): 2.9 fold | increase of CD45+/CD34+/c-kit+ cells ([3]; day 6): 6.1 fold | increase of CD45+/CD34+ cells ([3]; day 14): 6.0 fold | increase of CD45+/CD34+/CD31+ cells ([3]; day 14): 3.1 fold | increase of CD45+/CD34+/Sca-1+ cells ([3]; day 14): 2.9 fold | increase of CD45+/CD34+/c-kit+ cells ([3]; day 14): 9.0 fold | anterior (free LV) wall thickness (infarcted left ventricle; day 6): 0.58 mm | cellular density in the granulation tissue (infarcted left ventricle; day 6): 3317±171 /mm^2 | LV-infarct size (area of necrosis and granulation tissue) (infarcted left ventricle): 37% | LV-infarct size (area of necrosis and granulation tissue) (infarcted left ventricle; listed as rPTH(1-34)): 37.3±4.9% | anterior (free LV) wall thickness (infarcted left ventricle; day 30): 0.22 mm | frequency of large LV-aneurysms (infarcted left ventricle; day 30, vs saline): lower frequency | infarct size (area of fibrosis) (infarcted left ventricle; day 30 after LAD occlusion): 23.3±4.6% and 23%
